This note sets out measurements from ChEMBL document CHEMBL4007491, “Structure-based drug design of novel ASK1 inhibitors using an integrated lead optimization strategy” (Bioorg Med Chem Lett, 2017).

The target in one data set is T1, CYP1A2 (Homo sapiens, UniProt P05177).
T1 sequence (P05177 whole entry): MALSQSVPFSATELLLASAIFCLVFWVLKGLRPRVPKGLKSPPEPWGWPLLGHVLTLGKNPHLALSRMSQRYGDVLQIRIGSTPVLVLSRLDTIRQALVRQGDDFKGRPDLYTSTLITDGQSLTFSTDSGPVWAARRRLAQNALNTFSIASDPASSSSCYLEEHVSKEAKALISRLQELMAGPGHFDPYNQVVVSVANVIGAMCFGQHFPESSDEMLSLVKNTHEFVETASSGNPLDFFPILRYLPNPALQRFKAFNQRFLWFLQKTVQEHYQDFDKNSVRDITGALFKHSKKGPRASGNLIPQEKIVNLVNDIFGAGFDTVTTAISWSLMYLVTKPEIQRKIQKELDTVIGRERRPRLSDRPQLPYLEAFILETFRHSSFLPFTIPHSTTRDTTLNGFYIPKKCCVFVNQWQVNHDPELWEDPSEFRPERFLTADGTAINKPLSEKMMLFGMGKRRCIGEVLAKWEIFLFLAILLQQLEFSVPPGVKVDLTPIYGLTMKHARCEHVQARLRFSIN
The data set can be described thus: Inhibition of CYP1A2 (unknown origin) at 10 uM relative to control. It counts as ADME.

Data set [1] deals with Glycogen synthase kinase-3 beta (Homo sapiens, UniProt P49841). The data set can be described thus: Inhibition of recombinant full length human His-tagged GSK3B expressed in baculovirus expression system.
Chain of Glycogen synthase kinase-3 beta (P49841 whole entry): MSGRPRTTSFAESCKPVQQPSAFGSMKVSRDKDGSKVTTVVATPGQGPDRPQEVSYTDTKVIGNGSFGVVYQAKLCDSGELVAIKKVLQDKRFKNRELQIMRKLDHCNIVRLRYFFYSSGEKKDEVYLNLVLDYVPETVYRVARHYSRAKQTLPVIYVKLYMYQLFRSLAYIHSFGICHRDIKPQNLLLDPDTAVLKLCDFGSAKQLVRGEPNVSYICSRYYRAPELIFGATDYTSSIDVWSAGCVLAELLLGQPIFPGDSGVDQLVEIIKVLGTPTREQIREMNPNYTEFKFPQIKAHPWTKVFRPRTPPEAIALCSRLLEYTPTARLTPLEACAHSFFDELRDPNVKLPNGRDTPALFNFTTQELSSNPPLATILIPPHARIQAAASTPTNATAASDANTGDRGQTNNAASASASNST
Another data set addresses T2, Ephrin type-A receptor 3 (Homo sapiens, UniProt P29320).
T2 sequence (P29320 whole entry): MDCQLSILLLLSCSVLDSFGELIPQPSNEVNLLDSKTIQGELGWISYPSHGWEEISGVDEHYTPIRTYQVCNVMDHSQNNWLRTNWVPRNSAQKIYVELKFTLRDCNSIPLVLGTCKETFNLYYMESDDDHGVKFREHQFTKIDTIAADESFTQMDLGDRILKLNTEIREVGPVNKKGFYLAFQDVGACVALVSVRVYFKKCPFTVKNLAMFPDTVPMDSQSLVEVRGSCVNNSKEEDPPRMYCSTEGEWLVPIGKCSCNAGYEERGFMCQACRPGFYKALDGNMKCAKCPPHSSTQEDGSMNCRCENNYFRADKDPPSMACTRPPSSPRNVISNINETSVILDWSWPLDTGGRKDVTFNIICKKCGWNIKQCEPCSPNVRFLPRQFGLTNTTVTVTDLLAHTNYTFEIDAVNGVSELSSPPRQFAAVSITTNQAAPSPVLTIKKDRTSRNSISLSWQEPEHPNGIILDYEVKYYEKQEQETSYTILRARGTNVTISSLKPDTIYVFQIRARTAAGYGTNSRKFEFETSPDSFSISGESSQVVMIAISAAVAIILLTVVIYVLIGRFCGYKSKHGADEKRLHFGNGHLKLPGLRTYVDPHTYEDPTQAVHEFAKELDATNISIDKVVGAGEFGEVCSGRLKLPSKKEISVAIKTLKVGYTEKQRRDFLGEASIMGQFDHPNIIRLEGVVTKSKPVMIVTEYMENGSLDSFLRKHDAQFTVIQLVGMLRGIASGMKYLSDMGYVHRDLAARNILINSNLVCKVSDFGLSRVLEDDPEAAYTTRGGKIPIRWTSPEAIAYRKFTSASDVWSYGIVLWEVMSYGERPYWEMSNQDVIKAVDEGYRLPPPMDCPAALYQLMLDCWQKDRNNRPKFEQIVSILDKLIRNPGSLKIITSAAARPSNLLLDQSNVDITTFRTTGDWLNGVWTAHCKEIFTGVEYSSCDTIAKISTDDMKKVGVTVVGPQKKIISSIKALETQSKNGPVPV
The data set can be described thus: Inhibition of recombinant human His-tagged EPHA3 cytoplasmic domain (569 to 976 residues) expressed in baculovirus expression system.

For `COCCn1cc(NC(=O)c2csc(-c3nncn3C(C)C)n2)cn1`, at 10 µM the inhibition against CYP1A2 was 8%. For the same compound, the results for the half-maximal inhibitory concentration (IC50) (in data set [1]; on Ephrin type-A receptor 3) were 457 nM and over 20000 nM, respectively.

The inhibition is the change of the read-out against control, counted positive when it falls. Lower therefore signals a weak effect. Broadly, the IC50 is the concentration that inhibits the measured activity by half.
